Results published in US20230085945A1, “ORTHOGONAL SAFETY SWITCHES TO ELIMINATE GENETICALLY ENGINEERED CELLS” (The Board of Trustees of the Leland Stanford Junior …, priority 2020, published 2023).

Tests used:
[1] = system: ACTB^HSV-TK-mPlum;NANOG^iCasp9-YFP hPSCs; assay: Quantification of cell death after ganciclovir treatment of hPSCs; assay type: cell-based, human
Protocol: (§1) FIG. 5: Implementation of the ACTB^TK-mPlum safety switch. A) NANOG^iCasp9-YFP;ACTB^TK-mPlum hESCs were treated with ganciclovir (or left untreated) for 24 hours, and subsequently ganciclovir was withdrawn and hESCs were cultured for 1 week in mTeSR1 to detect any surviving cells and to allow them to regrow. […] N.D.=not detected. B) NANOG^iCasp9-YFP;ACTB^TK-mPlum hESCs were differentiated into day 6 liver, sclerotome and neural progenitors and treated with ganciclovir at the indicated doses for the last 24 hours of differentiation. Cell survival was analyzed by counting at day 6 of differentiation. C) 10^6 NANOG^iCasp9-YFP; ACTB^TK-mPlum hESCs engineered to express CAG-AkaLuciferase were treated with control media or 1 nM AP20187 for 24 hours, and then subcutaneously transplanted into the right and left dorsal flanks of NOD-SCID Il2rg^−/− mice (10^6 cells per flank). After 3 weeks post-transplant, teratomas formed in vivo and ganciclovir was administered daily at 50 mg/kg until week 7 post-transplant. Bioluminescent imaging of mice was conducted weekly for 7 weeks. Total flux (photons/sec) was measured for each animal and were averaged.
Quantification of cell death after ganciclovir treatment. […] At the end of 6 days of culture in mTeSR1 alone, the number of surviving live cells was counted.

[2] = system: teratomas from ACTB^HSV-TK-mPlum;NANOG^iCasp9-YFP hPSCs; assay: Elimination of teratomas using ganciclovir in vivo (bioluminescent imaging); design: species or system NSG mice; details: week 7 post-transplantation, 4 weeks after initiating ganciclovir 50 mg/kg daily
Protocol: as §1, with “After 3 weeks post-transplant, teratomas formed in vivo and ganciclovir was administered daily at 50 mg/kg until week 7 post-transplant. Bioluminescent imaging of mice was conducted weekly for 7 weeks.” left out
FIG. 10: Supporting data for ACTB^TK-mPlum safety switch (related to FIGS. 4-5). […] Total flux (photons/sec) was measured for each animal.
Bioluminescent imaging. […] Subsequent image analysis was done in Aura with regions of interest (ROIs) drawn for each mouse to calculate Total Flux (photons/sec) in order to quantify teratoma growth over time. […]

[3] = system: ACTB^HSV-TK-mPlum;NANOG^iCasp9-YFP hPSC-derived liver, bone and forebrain progenitors; assay: Ganciclovir treatment of differentiated progenitors, cell counting at day 6; assay type: cell-based, human; details: ganciclovir for last 24 hours of differentiation
[4] = system: ACTB^OiCasp9-mPlum;NANOG^iCasp9-YFP hPSCs and differentiated liver, bone and neural progenitors; assay: Killing of ACTB^OiCasp9-mPlum;NANOG^iCasp9-YFP hPSCs and differentiated derivatives by AP21 or AP20 (alamar blue); assay type: cell-based, human; details: dual-transgenic line; 1 nM, 24 hours
Protocol: FIG. 6: Rationale, design and implementation of the ACTB^OiCasP9-mPlum safety switch. A) Intended application of the dual ACTB^OiCasp9-mPlum;NANOG^iCasp9-YFP safeguard. B) Cas9 RNP/AAV6-based knock-in strategy for ACTB^iCasp9-mPlum targeting, which was performed in the NANOG^iCasp9-YFP hESC line. C) 5×10^5 ACTB^OiCasp9-mPlum; NANOG^iCasp9-YFP hESCs were treated with control media or 1-1000 nM AP21967 for 24 hours. Cell viability was analyzed using alamar blue. D) ACTB^OiCasp9-mPlum;NANOG^iCasp9-YFP and ACTB^TK-mPlum; NANOG^iCasp9-YFP hESCs (negative control), in addition to their respective differentiated derivatives, were treated for 24 hours with 1 nM of AP21967. E) 5×10^5 ACTB^OiCasp9-mPlum; NANOG^iCasp9-YFP hESCs, and their respective differentiated derivatives, were treated with control media, 1 nM of AP21967 or and 1 nM of AP20187 for 24 hours. Surviving cells were analyzed by alamar blue. F) 10^6 ACTB^OiCasp9-mPlum;NANOG^iCasp9-YFP hESCs engineered to express CAG-AkaLuciferase were treated with control media or 1 nM AP20187 for 24 hours, and then subcutaneously transplanted into the right and left dorsal flanks of NOD-SCID Il2rg^−/− mice (10^6 cells per flank). 4 weeks post-transplant, teratomas formed and AP21967 was intraperitoneally administered once at 10 mg/kg. […] Total flux (photons/sec) was measured for each animal and was averaged.

[5] = system: ACTB^TK-mPlum;NANOG^iCasp9-YFP hESCs (iCaspase9-expressing cells); assay: AP21967 treatment of iCaspase9-expressing cells (cross-reactivity check); assay type: cell-based, human; details: AP21967 24 hours
[6] = system: H9 undifferentiated hPSCs and hPSC-derived neural, liver, and sclerotome cells; assay: YM155 treatment, cell viability by alamar blue; assay type: cell-based, human; details: YM155 10 nM or 2 μM, 24 hours
Excerpt: FIG. 7: Marker expression during hPSC differentiation and evaluation of past safety switches (related to FIG. 2). A) i) Flow cytometry analysis of widely-used pluripotency surface markers SSEA-3, SSEA-4, TRA-1-60, TRA-1-81 and PODXL1^20,21 before and during differentiation into endodermal, mesodermal and ectodermal lineages for 1-6 days. Positive gates were set based on unstained negative controls. ii) Gene expression analysis of previously reported safety system genes CDK1, TERT, SCD1, PODXL1 and SURVIVIN before and during differentiation into endodermal, mesodermal and ectodermal lineages. Expression of lineage markers is depicted normalized to the reference gene YWHAZ (i.e., YWHAZ=1.0). B) Widely-used pluripotency surface markers such as SSEA-3, SSEA-4, TRA-1-60, TRA-1-81 and PODXL1^20,21 were not exclusive to pluripotent cells. […] Unstained hESCs (top row; grey shading) were used as a negative control to set positive gates (dotted vertical lines). […] D) H9 undifferentiated hPSCs and hPSC-derived neural, liver, and sclerotome cells (generated after 6 days of differentiation) were treated for 24 hours with YM155 (either 10 nM or 2 μM), a small molecule SURVIVIN inhibitor, and cell viability was assessed using alamar blue.

Nc1nc(O)c2ncn(COC(CO)CO)c2n1 [ganciclovir]
in vitro proliferation of hPSCs ([1]; ganciclovir 24 hours, then 1 week in mTeSR1): broadly blocked the in vitro proliferation | cell death in hPSCs ([1]; three days post-GCV treatment (0.5-2 μM, 24 hours)): cell death was observed | detectable teratomas by bioluminescent imaging [2]: no ganciclovir-treated mice had detectable teratomas | in vitro proliferation of derivative liver, bone and forebrain progenitors [3]: broadly blocked the in vitro proliferation

CO[C@H]1[C@@H](O)[C@H](C)C[C@H](C)/C=C/C=C/C=C(\C)[C@@H](c2c[nH]c3c(C)cccc23)C[C@@H]2CC[C@@H](C)[C@@](O)(O2)C(=O)C(=O)N2CCCC[C@H]2C(=O)O[C@H]([C@H](C)C[C@@H]2CC[C@@H](O)[C@H](OC)C2)C[C@H](O)[C@H](C)/C=C(\C)[C@H]1O [AP21]
killing of undifferentiated and differentiated cells [4]: kill both undifferentiated hPSCs and differentiated liver, bone and neural progenitors | killing of iCaspase9-expressing cells [5]: does not kill iCaspase9-expressing cells

COCCn1c2c([n+](Cc3cnccn3)c1C)C(=O)c1ccccc1C2=O [YM155]
cell killing (viability) [6]: killed both undifferentiated and differentiated hPSCs
